Source: PMC12586598, “A novel long-acting C5a-blocking cyclic peptide prevents sepsis-induced organ dysfunction via effective blockade of the inflammatory cascade” (Signal Transduction and Targeted Therapy, 2025)
Where a SMILES comes first, the peptide text is derived from it.

Legend:
[1] = in vitro; conditions: C57BL/6, mouse, plasma
Excerpt: The peptides in the plasma were extracted with 15% TFA and quantified via reversed-phase high-performance liquid chromatography (HPLC) (Agilent 1260, USA).

[2] = biological target: T1, human C5a (Homo sapiens, UniProt P01031); assay: SPR binding affinity assay, immobilized human C5a
T1 construct: human C5a (ACROBiosystems, Beijing, China); purchased ACROBiosystems
T1 sequence (P01031 678-751 limits assumed): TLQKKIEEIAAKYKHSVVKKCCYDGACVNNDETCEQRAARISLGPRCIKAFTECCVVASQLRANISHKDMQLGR
Method: (§1) Surface plasmon resonance (SPR) analysis was conducted using Biacore 2000 system (GE Healthcare, Germany) at 37°C in running buffer (20 mM Tris-HCl, pH 7.4, 150 mM NaCl, 5 mM KCl, 1 mM MgCl₂, 1 mM CaCl₂). The CM5 sensor chips (GE Healthcare) were activated with NHS/EDC, followed by immobilization of mouse C5a (ACROBiosystems, Beijing, China), human C5a (ACROBiosystems, Beijing, China), mouse C5 (ACROBiosystems, Beijing, China) or mouse C5a-desArg (MCE, Shanghai, China). The peptide-protein interactions were characterized using a concentration-gradient approach (low to high) with a continuous flow rate of 30 μL/min (150 s injection duration). Between analyte concentrations, the sensor surface was regenerated with 10 mM glycine-HCl (pH 2.0; 5 min treatment). Binding and dissociation constants were obtained by globally fitting the data to a 1:1 Langmuir binding model using a Biacore Insight evaluation software (Cytiva, USA).

[3] = biological target: T2, mouse C5 (Mus musculus, UniProt P06684); assay: SPR binding affinity assay, immobilized mouse C5
T2 construct: purchased ACROBiosystems
Method: as §1

[4] = biological target: T3, mouse C5a (Mus musculus, UniProt P06684); assay: Plasma C5a/C5 ratio by ELISA after Cp1; format: in vivo; conditions: 100 μg/20 g, normal mice or CLP model mice
T3 sequence (P06684 679-755 limits assumed): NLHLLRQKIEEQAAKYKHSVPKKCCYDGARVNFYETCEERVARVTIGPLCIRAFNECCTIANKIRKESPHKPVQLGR
Excerpt: We evaluated the in vivo neutralization of Cp1 against C5a by measuring the plasma C5a/C5 ratio in normal mice or CLP model mice.

[5] = tested on: PMNs; assay: Neutrophil phagocytosis (BioParticles and live bacteria), flow cytometry; format: cell-based, human; conditions: 6 h hC5a stimulation; E. coli and S. aureus BioParticles and live bacteria
Method: To assess the phagocytic function of neutrophils, PMNs were stimulated with hC5a or hC5a/Cp1 complexes for 6 h, followed by incubation with 20 μL of Red E. coli BioParticles™ or Green S. aureus BioParticles™ (Invitrogen, USA) at 37 °C for 0.5 h in the dark.[44] After being washed with precooled PBS and centrifuged (40 × g, 5 min), the samples were subjected to flow cytometric quantification for phagocytosis analysis. For the live bacterial phagocytosis assay, 2 × 10^5 PMNs were prestimulated with 100 ng of hC5a or hC5a/Cp1 complexes for 6 h. The PMNs were incubated with DMAO-labeled E. coli (ATCC 25922) or S. aureus (ATCC 29213) at an MOI (multiplicity of infection) of 10 for 0.5 h at 37 °C in the dark, followed by pretreatment with precooled gentamicin (50 μg/mL). The intracellular fluorescence intensity of PMNs was quantified via flow cytometry.

[6] = biological target: T4, C5a-C5aR1 (Homo sapiens, UniProt P01031); assay: Validation of Cp1-specific blockade of C5a-C5aR1 by flow cytometry on PMNs; format: cell-based; conditions: resting and TNF-α activated PMNs, Cy5-C5a
T4 construct: 10 ng of Cy5-labeled human C5a (MCE, Shanghai, China); purchased MCE; host or cells: PMNs from Oribiotech Co., Ltd. (endogenous receptor)
T4 sequence (P01031 678-751): T1 sequence (P01031 678-751 limits assumed)
Method: To validate the Cp1-specific blockade of C5a-C5aR1. PMNs isolated by flow cytometric sorting from Oribiotech Co., Ltd. (Shanghai, China) were preincubated with C5aR1-antibody (5 μg), C5aR2-antibody (5 μg), Cp1 (10 μg), Cp1 (10 μg)+C5aR1-antibody (5 μg) or Cp1 (10 μg)+C5aR2-antibody (5 μg) at room temperature for 0.5 h, followed by incubation with 10 ng of Cy5-labeled human C5a (MCE, Shanghai, China) at 4 °C for 0.5 h in the dark. The samples were subsequently centrifuged, washed with PBS and detected via flow cytometry. PMNs were stimulated with 10 ng/mL TNF-α for 12 hours to perform competitive binding assays under activated conditions.

[7] = biological target: T5, Cy5-labeled mouse C5a protein (Mus musculus, UniProt P06684); assay: Competitive binding assay by FCM (Cy5-C5a on mouse neutrophils); format: cell-based; conditions: high (1 μg/mL) or low (10 ng/mL) concentrations
T5 construct: 10 ng of Cy5-labeled mouse C5a protein (MCE, Shanghai, China); purchased MCE; host or cells: mouse peripheral blood neutrophils (endogenous receptor)
T5 sequence (P06684 679-755): T3 sequence (P06684 679-755 limits assumed)
Method: For the validation of peptide affinity for C5a. Peripheral blood neutrophils from the mice were isolated via density gradient centrifugation (Solarbio P9201, Beijing, China). A total of 10 ng of Cy5-labeled mouse C5a protein (MCE, Shanghai, China) was preincubated with linear peptides or cyclic peptides (10 or 100 ng) at room temperature for 0.5 h. Subsequently, 2×10^5 mouse neutrophils were incubated with Cy5-labeled mouse C5a or Cy5-labeled mouse C5a/peptide complexes at 4 °C for 0.5 h in the dark, followed by centrifugation, washing with PBS and flow cytometric analysis (Sony ID7000™, Japan).

[8] = tested on: human peripheral blood mononuclear cells (PBMCs); assay: RNA sequencing of C5a-stimulated PBMCs; format: cell-based; conditions: |log2FoldChange| ≥ 1, P < 0.05
Method: Human peripheral mononuclear cells were stimulated with 100 ng/mL of human C5a protein (MCE, China) or a complex of human C5a with Cp1 for 1 h. After RNA extraction, purification and library construction, the Next-Generation Sequencing (NGS) technology was used to perform paire-end (PE) sequencing based on Illumina sequencing platform in Bioprofile Biotechnology Co., Ltd (Shanghai, China). The expression of each gene was calculated and further subjected to differential expression analysis, enrichment analysis and cluster analysis.

T2 sequence (P06684 19-1680): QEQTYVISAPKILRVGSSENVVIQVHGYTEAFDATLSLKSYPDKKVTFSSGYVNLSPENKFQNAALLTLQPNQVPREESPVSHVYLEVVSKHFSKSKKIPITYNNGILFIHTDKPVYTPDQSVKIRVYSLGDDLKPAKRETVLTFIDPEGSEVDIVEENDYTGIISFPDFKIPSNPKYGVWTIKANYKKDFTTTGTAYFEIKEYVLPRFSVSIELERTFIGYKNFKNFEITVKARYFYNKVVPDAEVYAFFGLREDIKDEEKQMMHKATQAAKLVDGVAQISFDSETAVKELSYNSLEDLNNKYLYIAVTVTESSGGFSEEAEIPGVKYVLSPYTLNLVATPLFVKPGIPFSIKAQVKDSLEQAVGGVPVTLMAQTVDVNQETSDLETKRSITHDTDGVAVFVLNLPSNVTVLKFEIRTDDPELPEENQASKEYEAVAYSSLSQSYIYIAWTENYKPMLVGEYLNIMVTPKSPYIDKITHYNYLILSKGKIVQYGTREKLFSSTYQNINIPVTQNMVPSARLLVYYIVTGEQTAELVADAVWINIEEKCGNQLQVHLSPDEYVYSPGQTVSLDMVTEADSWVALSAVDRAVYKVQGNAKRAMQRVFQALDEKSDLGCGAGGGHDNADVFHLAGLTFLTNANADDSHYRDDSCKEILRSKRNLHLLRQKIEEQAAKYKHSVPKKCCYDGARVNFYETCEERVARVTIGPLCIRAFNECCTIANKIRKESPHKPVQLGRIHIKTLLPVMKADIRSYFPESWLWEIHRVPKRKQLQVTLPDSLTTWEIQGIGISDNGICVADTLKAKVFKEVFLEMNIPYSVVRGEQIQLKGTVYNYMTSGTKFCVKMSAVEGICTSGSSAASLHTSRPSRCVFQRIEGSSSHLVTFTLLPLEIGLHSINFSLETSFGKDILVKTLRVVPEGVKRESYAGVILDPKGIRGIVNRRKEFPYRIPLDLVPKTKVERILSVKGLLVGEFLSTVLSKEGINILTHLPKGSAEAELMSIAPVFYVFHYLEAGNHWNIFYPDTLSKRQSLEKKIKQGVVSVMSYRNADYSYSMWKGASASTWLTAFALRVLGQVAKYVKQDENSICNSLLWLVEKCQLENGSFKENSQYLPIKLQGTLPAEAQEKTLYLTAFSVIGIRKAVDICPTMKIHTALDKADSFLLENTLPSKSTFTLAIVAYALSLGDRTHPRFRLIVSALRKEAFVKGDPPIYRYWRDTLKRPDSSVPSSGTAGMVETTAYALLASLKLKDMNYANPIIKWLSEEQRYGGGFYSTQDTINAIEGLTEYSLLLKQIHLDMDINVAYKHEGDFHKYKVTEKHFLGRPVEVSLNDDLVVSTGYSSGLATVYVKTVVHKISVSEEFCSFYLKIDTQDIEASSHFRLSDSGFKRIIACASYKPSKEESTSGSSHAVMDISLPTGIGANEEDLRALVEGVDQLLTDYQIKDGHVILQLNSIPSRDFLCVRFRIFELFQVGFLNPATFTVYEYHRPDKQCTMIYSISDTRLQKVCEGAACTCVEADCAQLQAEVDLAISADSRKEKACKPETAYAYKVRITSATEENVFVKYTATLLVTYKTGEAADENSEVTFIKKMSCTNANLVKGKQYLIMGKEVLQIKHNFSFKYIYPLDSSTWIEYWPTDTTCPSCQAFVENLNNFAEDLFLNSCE

Q: What does the source list for `CSCC[C@@H]1NC(=O)[C@@H]2CCCN2C(=O)[C@H](CCSC)NC(=O)[C@H](CO)NC(=O)[C@H](Cc2c[nH]cn2)NC(=O)CNC(=O)[C@H](CO)NC(=O)[C@H](Cc2ccccc2)NC(=O)[C@H](CCCNC(=N)N)NC(=O)[C@H](CCC(=O)O)NC(=O)[C@H](Cc2ccccc2)NC(=O)[C@H](C(C)C)NC1=O` [Cp1] (cyclo(HSMPMVFERFSG))?
A: remaining at 24 h [1]: > 95%; kon ([2]; pH 7.4, read-out: Ka vs hC5a (SPR)): 53300 M⁻¹ s⁻¹; koff ([2]; read-out: Kd (dissociation rate) vs hC5a (SPR)): 0.395 s⁻¹; kon ([3]; pH 7.4, read-out: Ka vs mC5 (SPR)): 105000 M⁻¹ s⁻¹; koff ([3]; read-out: Kd (dissociation rate) vs mC5 (SPR)): 0.0745 s⁻¹; plasma C5a/C5 ratio [4]: decreased ratio of C5a/C5; effect on C5a-induced phagocytic impairment in PMNs [5]: effectively mitigated C5a-induced phagocytic impairment; specificity of blocking the C5a-C5aR1 axis [6]: selective blockade of the C5a‒C5aR1 interaction; blockade of Cy5-C5a binding to mouse neutrophils [7]: validated the blocking efficacy; DEGs downregulated after Cp1 preincubation [8]: 2235
